Strand notation (5' to 3'): a small letter for the sugar, then the base; units joined by * are phosphorothioate-linked, units joined directly phosphodiester-linked; [ ] holds rarer units or linkages, { } end groups; capitals alone tell only the bases. e = 2'-O-(2-methoxyethyl) (MOE); l = locked nucleic acid (LNA); [5mC] = 5-methylcytosine; d = 2'-deoxy (DNA)
System: human ABCB11 mRNA
Test: ASO treatment of primary human hepatocytes (PHH), ABCB11 mRNA by RT-qPCR normalized to B2M
Type: cell-based
Conditions: for ABCB11 mRNA FC (5 μM ASO vs. UNT) / ABCB11 FC mRNA (5 μM ASO vs. untreated): primary human hepatocytes; for ABCB11 mRNA FC (5 μM ASO vs. UNT): normalized to untreated PHHs (UNT); for ABCB11 FC mRNA (5 μM ASO vs. untreated): 5 μM ASO with PO-modifications, normalized to untreated hepatocytes
How it was run: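 ABCB11 mRNA was quantified by Taqman RT-qPCR relative to B2M and expressed as fold over untreated cells. Cells were cryopreserved primary human hepatocytes given ASO in Matrigel-supplemented medium 4 h after plating, at 1.25, 2.5, 5 or 10 μM (5 μM for screening), and harvested after 72 hrs.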

CO-7180: derivative ASO with additional chemical modifications based on parent ASO CO-4529 (antisense eG*eT*lG*eG*eA*lG*e[5mC]*eA*lA*eA*e[5mC]*lT*eA*eG*lG*e[5mC]*eA*l[5mC]*eT*eG)
ABCB11 mRNA FC (5 μM ASO vs. UNT): 2.04 fold change

CO-7181: derivative ASO with additional chemical modifications based on parent ASO CO-4529 (antisense eG*eT*eG*eG*lA*eG*e[5mC]*eA*lA*eA*e[5mC]*eT*lA*eG*eG*e[5mC]*lA*e[5mC]*eT*eG)
ABCB11 mRNA FC (5 μM ASO vs. UNT): 1.603 fold change

CO-7182: derivative ASO with additional chemical modifications based on parent ASO CO-4529 (antisense eG*eT*eG*lG*eA*eG*e[5mC]*lA*eA*eA*e[5mC]*lT*eA*eG*eG*l[5mC]*eA*e[5mC]*eT*eG)
ABCB11 mRNA FC (5 μM ASO vs. UNT): 1.572 fold change

CO-7183 (antisense eG*eT*eG*eG*eA*lG*e[5mC]*eA*eA*eA*l[5mC]*eT*eA*eG*eG*l[5mC]*eA*e[5mC]*eT*eG)
ABCB11 mRNA FC (5 μM ASO vs. UNT): 1.295 fold change

CO-7184: derivative ASO with additional chemical modifications based on parent ASO CO-4529 (antisense eG*eT*eG*eG*lA*eG*e[5mC]*eA*eA*lA*e[5mC]*eT*eA*eG*lG*e[5mC]*eA*e[5mC]*eT*eG)
ABCB11 mRNA FC (5 μM ASO vs. UNT): 1.582 fold change

CO-7185 (antisense eT*eG*eG*e[5mC]*eG*lT*dT*dA*lT*dT*dA*lA*dT*dT*l[5mC]*eT*eA*e[5mC]*eA*eG)
ABCB11 mRNA FC (5 μM ASO vs. UNT): 1.327 fold change

CO-7186: derivative ASO with additional chemical modifications based on parent ASO CO-4535 (antisense eT*eG*eG*l[5mC]*eG*dT*dT*lA*dT*dT*dA*lA*dT*dT*d[5mC]*lT*eA*e[5mC]*eA*eG)
ABCB11 mRNA FC (5 μM ASO vs. UNT): 1.85 fold change

CO-7187: derivative ASO with additional chemical modifications based on parent ASO CO-4535 (antisense eT*eG*eG*e[5mC]*lG*dT*dT*dA*lT*dT*dA*dA*lT*dT*d[5mC]*eT*lA*e[5mC]*eA*eG)
ABCB11 mRNA FC (5 μM ASO vs. UNT): 1.544 fold change

CO-7188: derivative ASO with additional chemical modifications based on parent ASO CO-4535 (antisense eT*eG*eG*l[5mC]*eG*lT*eT*lA*eT*lT*eA*lA*eT*lT*e[5mC]*lT*eA*l[5mC]*eA*eG)
ABCB11 mRNA FC (5 μM ASO vs. UNT): 1.697 fold change

CO-7189: derivative ASO with additional chemical modifications based on parent ASO CO-4535 (antisense eT*eG*lG*e[5mC]*lG*eT*lT*eA*lT*eT*lA*eA*lT*eT*l[5mC]*eT*lA*e[5mC]*eA*eG)
ABCB11 mRNA FC (5 μM ASO vs. UNT): 1.487 fold change

CO-7190: derivative ASO with additional chemical modifications based on parent ASO CO-4535 (antisense eT*eG*lG*e[5mC]*eG*lT*eT*eA*lT*eT*eA*lA*eT*eT*l[5mC]*eT*eA*l[5mC]*eA*eG)
ABCB11 mRNA FC (5 μM ASO vs. UNT): 1.641 fold change

CO-7191: derivative ASO with additional chemical modifications based on parent ASO CO-4535 (eT*eG*eG*e[5mC]*lG*eT*eT*eA*lT*eT*eA*eA*lT*eT*e[5mC]*eT*lA*e[5mC]*eA*eG)
ABCB11 mRNA FC (5 μM ASO vs. UNT): 1.676 fold change

CO-7192 (eT*eG*eG*l[5mC]*eG*eT*eT*lA*eT*eT*eA*lA*eT*eT*e[5mC]*lT*eA*e[5mC]*eA*eG; antisense)
ABCB11 mRNA FC (5 μM ASO vs. UNT): 1.591 fold change

CO-7193: derivative ASO with additional chemical modifications based on parent ASO CO-4535 (eT*eG*eG*e[5mC]*eG*lT*eT*eA*eT*eT*lA*eA*eT*eT*e[5mC]*lT*eA*e[5mC]*eA*eG)
ABCB11 mRNA FC (5 μM ASO vs. UNT): 1.555 fold change

CO-7195 (eG*eG*eT*eG*eG*eA*dG*d[5mC]*dA*dA*dA*d[5mC]*dT*dA*dG*dG*e[5mC]*eA*e[5mC]*eT*eG*eA; antisense)
ABCB11 mRNA FC (5 μM ASO vs. UNT): 1.443 fold change

CO-7196 (eG*eG*eT*eG*eG*eA*eG*e[5mC]*eA*eA*eA*e[5mC]*eT*eA*eG*eG*e[5mC]*eA*e[5mC]*eT*eG*eA; antisense)
ABCB11 mRNA FC (5 μM ASO vs. UNT): 1.33 fold change

CO-7197 (eG*eG*eT*eG*eG*dA*dG*d[5mC]*eA*dA*dA*d[5mC]*dT*eA*dG*dG*d[5mC]*eA*e[5mC]*eT*eG*eA; antisense)
ABCB11 mRNA FC (5 μM ASO vs. UNT): 1.364 fold change

CO-7198 (eG*eG*eT*eG*eG*lA*dG*d[5mC]*lA*dA*dA*d[5mC]*dT*lA*dG*dG*l[5mC]*eA*e[5mC]*eT*eG*eA; antisense)
ABCB11 mRNA FC (5 μM ASO vs. UNT): 1.075 fold change

CO-7199 (eA*eG*eG*eT*eG*eG*eA*dG*d[5mC]*dA*dA*dA*d[5mC]*dT*dA*dG*dG*e[5mC]*eA*e[5mC]*eT*eG*eA*eG; antisense)
ABCB11 mRNA FC (5 μM ASO vs. UNT): 1.166 fold change

CO-7200 (eA*eG*eG*eT*eG*eG*eA*eG*e[5mC]*eA*eA*eA*e[5mC]*eT*eA*eG*eG*e[5mC]*eA*e[5mC]*eT*eG*eA*eG; antisense)
ABCB11 mRNA FC (5 μM ASO vs. UNT): 1.277 fold change

CO-7201 (eA*eG*eG*eT*eG*dG*dA*eG*d[5mC]*dA*eA*dA*d[5mC]*eT*dA*dG*eG*d[5mC]*dA*e[5mC]*eT*eG*eA*eG; antisense)
ABCB11 mRNA FC (5 μM ASO vs. UNT): 1.253 fold change

CO-7205 (eT*eT*eG*eG*e[5mC]*dG*dT*dT*eA*dT*dT*dA*dA*eT*dT*d[5mC]*dT*eA*e[5mC]*eA*eG*eA; antisense)
ABCB11 mRNA FC (5 μM ASO vs. UNT): 1.278 fold change

CO-7206 (eT*eT*eG*eG*e[5mC]*lG*dT*dT*lA*dT*dT*dA*dA*lT*dT*d[5mC]*lT*eA*e[5mC]*eA*eG*eA; antisense)
ABCB11 mRNA FC (5 μM ASO vs. UNT): 1.164 fold change

CO-7207 (eT*eT*eT*eG*eG*e[5mC]*eG*dT*dT*dA*dT*dT*dA*dA*dT*dT*d[5mC]*eT*eA*e[5mC]*eA*eG*eA*eG; antisense)
ABCB11 mRNA FC (5 μM ASO vs. UNT): 1.221 fold change

CO-7208 (eT*eT*eT*eG*eG*e[5mC]*eG*eT*eT*eA*eT*eT*eA*eA*eT*eT*e[5mC]*eT*eA*e[5mC]*eA*eG*eA*eG; antisense)
ABCB11 mRNA FC (5 μM ASO vs. UNT): 1.339 fold change

CO-7209 (eT*eT*eT*eG*eG*d[5mC]*dG*eT*dT*dA*eT*dT*dA*eA*dT*dT*e[5mC]*dT*dA*e[5mC]*eA*eG*eA*eG; antisense)
ABCB11 mRNA FC (5 μM ASO vs. UNT): 1.262 fold change

CO-7210 (eT*eT*eT*eG*eG*d[5mC]*dG*lT*dT*dA*lT*dT*dA*lA*dT*dT*l[5mC]*dT*dA*e[5mC]*eA*eG*eA*eG; antisense)
ABCB11 mRNA FC (5 μM ASO vs. UNT): 1.362 fold change

CO-11198 (antisense eT*eG*eT*eT*eTeTeG*e[5mC]*eT*eT*eG*eG*eT*e[5mC]eAeA*eG*eA*eG*eG)
ABCB11 FC mRNA (5 μM ASO vs. untreated): 0.97 fold change

CO-11199 (antisense eT*eG*eT*eTeTeTeG*e[5mC]*eT*eT*eG*eG*eT*e[5mC]eAeAeG*eA*eG*eG)
ABCB11 FC mRNA (5 μM ASO vs. untreated): 0.97 fold change

CO-11200 (antisense eT*eG*eTeTeTeTeG*e[5mC]*eT*eT*eG*eG*eT*e[5mC]eAeAeGeA*eG*eG)
ABCB11 FC mRNA (5 μM ASO vs. untreated): 1.34 fold change

CO-11201 (antisense eT*eGeTeTeTeTeG*e[5mC]*eT*eT*eG*eG*eT*e[5mC]eAeAeGeAeG*eG)
ABCB11 FC mRNA (5 μM ASO vs. untreated): 0.99 fold change

CO-11202: ASO containing PO-modifications identified in the Table 13 screen in PHHs (antisense eT*eG*eTeT*eT*eT*eG*e[5mC]eT*eT*eG*eG*eTe[5mC]*eA*eA*eG*eAeG*eG)
ABCB11 mRNA fold change (PHHs, 5 μM dose (FIG. 14)): ~2 fold
ABCB11 mRNA fold change (PHHs, 10 μM dose (FIG. 14)): ~3.5 fold
ABCB11 mRNA expression, dose response (PHHs, comparison study with OCA, elafibranor, fenofibrate (FIG. 14)): dose-dependent increase
ABCB11 FC mRNA (5 μM ASO vs. untreated): 1.50 fold change

CO-11203 (antisense eT*eG*eT*eTeT*eT*eG*e[5mC]eT*eT*eG*eGeT*e[5mC]*eA*eAeG*eA*eG*eG)
ABCB11 FC mRNA (5 μM ASO vs. untreated): 1.38 fold change

CO-11204 (antisense eT*eG*eT*eT*eTeT*eG*e[5mC]*eTeT*eG*eG*eTe[5mC]*eA*eA*eGeA*eG*eG)
ABCB11 FC mRNA (5 μM ASO vs. untreated): 1.15 fold change

CO-11205 (antisense eT*eGeT*eT*eT*eTeG*e[5mC]*eT*eTeG*eG*eT*e[5mC]eA*eA*eG*eAeG*eG)
ABCB11 FC mRNA (5 μM ASO vs. untreated): 1.11 fold change

CO-11206 (antisense eT*eGeT*eT*eTeT*eG*e[5mC]eT*eT*eGeG*eT*e[5mC]eA*eA*eGeA*eG*eG)
ABCB11 FC mRNA (5 μM ASO vs. untreated): 1.02 fold change

CO-11207 (antisense eT*eG*eTeT*eT*eTeG*e[5mC]*eTeT*eG*eGeT*e[5mC]*eAeA*eG*eAeG*eG)
ABCB11 FC mRNA (5 μM ASO vs. untreated): 0.91 fold change

CO-11208 (antisense eT*eG*eTeT*eTeT*eGe[5mC]*eTeT*eGeG*eTe[5mC]*eAeA*eGeA*eG*eG)
ABCB11 FC mRNA (5 μM ASO vs. untreated): 1.04 fold change

CO-11209 (antisense eT*eGeT*eTeT*eTeG*e[5mC]eT*eTeG*eGeT*e[5mC]eA*eAeG*eAeG*eG)
ABCB11 FC mRNA (5 μM ASO vs. untreated): 1.11 fold change

CO-11210 (antisense eG*eT*lG*eG*lAeGl[5mC]*eA*lA*eA*l[5mC]*eT*lA*eGlGe[5mC]*lA*e[5mC]*eT*eG)
ABCB11 FC mRNA (5 μM ASO vs. untreated): 2.79 fold change

CO-11211 (antisense eG*eT*lG*eGlAeGl[5mC]*eA*lA*eA*l[5mC]*eT*lA*eGlGe[5mC]lA*e[5mC]*eT*eG)
ABCB11 FC mRNA (5 μM ASO vs. untreated): 2.80 fold change

CO-11212 (antisense eG*eT*lGeGlAeGl[5mC]*eA*lA*eA*l[5mC]*eT*lA*eGlGe[5mC]lAe[5mC]*eT*eG)
ABCB11 FC mRNA (5 μM ASO vs. untreated): 2.44 fold change

CO-11213 (antisense eG*eTlGeGlAeGl[5mC]*eA*lA*eA*l[5mC]*eT*lA*eGlGe[5mC]lAe[5mC]eT*eG)
ABCB11 FC mRNA (5 μM ASO vs. untreated): 1.95 fold change

Reference: patent US20250320496A1, “MODULATION OF ABCB11 GENE TRANSCRIPTION USING ANTISENSE OLIGONUCLEOTIDES TARGETING REGULATORY RNAS” (CAMP4 Therapeutics Corporation, priority 2022, published 2025)
